Laboratory results published in PMC8130708 (Journal of medicinal chemistry, 2021).
Entries after “also recorded” stand apart in the source; their conditions may differ.

Assays:
[1] = target: T1, NSD2-PWWP1 (Homo sapiens, UniProt O96028); format: binding; settings: for potency on NSD2-PWWP1, SAR statement in words: relative to parent compound 2 or 3, Tables 1 and 2 (images, DSLS/SPR)
T1 sequence (O96028 222-286 limits assumed): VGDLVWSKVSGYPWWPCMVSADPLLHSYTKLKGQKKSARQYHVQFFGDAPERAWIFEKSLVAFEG

[2] = system: PWWP domains; settings: DSLS
[3] = target: T2, NSD2-PWWP1 (Homo sapiens, UniProt O96028); assay: Differential static light scattering; format: binding; settings: read-out: increase of melting temperature of N-terminal PWWP domain of NSD2
T2 sequence (O96028 211-350): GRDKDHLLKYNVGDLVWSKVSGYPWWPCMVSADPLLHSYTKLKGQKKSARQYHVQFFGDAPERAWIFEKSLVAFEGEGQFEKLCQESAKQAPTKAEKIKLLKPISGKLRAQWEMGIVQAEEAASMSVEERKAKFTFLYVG

Row | Compound | potency on NSD2-PWWP1, SAR statement in words [1] | also measured
1 | CN(Cc1ccc(F)cc1)C(=O)c1ccc(C#N)cc1 [Compound 3a] | much weaker or completely inactive | 
2 | N#Cc1ccc(C(=O)N(Cc2cccs2)C2CC2)cc1 [Compound 3f] |  | binding / effect on melting temperature in a panel of 10 PWWP domains ([2]; compound at 100 μM (Figure 2C)): only bound NSD2-PWWP1; also recorded: only affects the melting temperature of NSD2-PWWP1
3 | N#Cc1ccc(C(=O)NCc2ccc(F)cc2)cc1 [Compound 3b] | much weaker or completely inactive | 
4 | N#Cc1ccc(C(=O)N2CCCC2c2ccccc2)cc1 (centres unmarked) [Compound 2a] | improved potency | 
5 | Cc1ccc(C(=O)N2CCCC2c2ccc(Cl)cc2)cc1 (centres unmarked) [Compound 2i] | abolished activity | 
6 | N#Cc1ccc(C(=O)N(Cc2ccc(F)cc2)C2CC2)cc1 [Compound 3] |  | fold more potent than compound 1 ([1]; ratio of SPR Kd values): 6; fold more potent than compound 2 ([1]; ratio of SPR Kd values): 25
7 | COc1ccc(C2CCCN2C(=O)c2ccc(C#N)cc2)cc1 (centres unmarked) [Compound 2b] | no significant effect | 
8 | N#Cc1ccc(C(C(N)=O)N2CCC2c2ccc(Cl)cc2)cc1 (centres unmarked) [Compound 1] |  | binding to six other PWWP-containing proteins ([2]; compound at 400 μM (Table S2)): did not bind; ΔTm at 400 µM [3]: 4 °C
9 | O=C(c1ccccc1)N1CCCC1c1ccccc1 (centres unmarked) [Compound 2h] | abolished activity | 
